Experiment [1] has as its system OE21 cells. Put plainly: DNA fibre assay (replication fork progression). It is filed as cell-based, human. The settings on record: Ru1 21 μM or dppz 7 μM during second (IdU) pulse, 30 min. As to the method:
DNA fibre assay. The DNA fibre assay was performed as described previously.5 Briefly, OE21 cells were labelled with 30 µM CldU for 30 mins and then 250 µM IdU for an additional 30 mins. Either Ru1 (21 µM) or dppz (7 µM) was added during the second (IdU) nucleotide step (30 mins). DNA replication was terminated using ice-cold PBS and cells lysed (200 mM Tris-HCl pH 7.4, 50 mM EDTA and 0.5% SDS). DNA fibres were spread onto glass slides, fixed with methanol:acetic acid (3:1) and denatured with 2.5 M HCl. After blocking with 2% BSA, fibres were stained with anti-rat and anti-mouse 5-bromo-2′- deoxyuridine (BrdU) that specifically recognise either CldU (Abcam, dilution 1:500) or IdU (BD Sciences, 1:100). Anti-rat Cy3 (Jackson Immuno Research, 1:300) and anti-mouse Alexa-488 (Molecular Probes, 1:300) were used as the respective secondary antibodies. CldU- and IdU-labelled tracts were visualised using a Leica DMRB microscope with a DFC360FX camera and tract length measured by ImageJ software. Statistical analysis was performed by GraphPad Prism software using an unpaired t-test.
Western blotting. Treated samples were washed with cold PBS and lysed in RIPA (radioimmunoprecipitation assay) buffer containing protease inhibitors (10 μg/mL leupeptin, 2 μg/mL pepstatin, 50 μg/mL antipain, 2 μg/mL aprotinin, 20 μg/mL chyprostatin, 2 μg/mL benzamidine, 1 mM phenylmethanesulfonyl fluoride) and phosphatase inhibitors (50 mM NaF, 1 mM […]
Bis-Tris gels and LDS-PAGE. Gels were transferred onto nitrocellulose membrane and probed with primary antibodies in 5% BSA (bovine serum albumin) solutions at the following dilutions: 1/1000 dilution for majority of Cell Signaling antibodies and γH2AX. 1/500 for anti-p-ATR and anti-cleaved caspase 3. 1/200 anti-Chk1. 1/5000-1/10,000 anti- α-tubulin or β-actin.
Reactions were visualised with a suitable secondary antibody conjugated with horseradish peroxidase (1/5000 dilution, Thermo). […]

The test system of experiment [2] is OE21 cells. Put plainly: Quantification of aberrant mitoses (CLSM). It is filed as cell-based, human. The note with it: OE21, IC50 concentration, 24 h. As to the method:
Microscopy and immunofluorescence. Cells were seeded on ibidi 35 mm µ-dishes (Thistle Scientific), allowed to adhere for 24 h and treated as stated in the main text. Cell media was removed, cells washed with PBS and fixed with formaldehyde (4%, 10 mins). Cells were permeablised with Triton (0.5% in PBS, 5 mins) and washed with PBS. Samples were blocked with BSA (3% in PBS-T) for 1 h before incubation with primary antibody (either anti-α-tubulin or anti-γ H2AX, 1/500 dilution) in BSA (3% in PBS-T) for 1 h. Samples were washed 3x in PBS-T and incubated with Alexa Fluor-conjugated secondary antibodies (3% in PBS-T, 1 h, 1/250 dilution). After further washing (3x5 min PBS-T) samples were co-stained with DAPI (5 ng/ml, 2 min), fresh PBS added and visualised by confocal microscopy. Samples were visualised using a Zeiss LSM 780 or LSM 710 inverted confocal microscope and EC Plan-Neofluar 40x/1.30 Oil objectives. […]
For the determination of mutation induction, from the untreated and each treated condition, 2x10^5 cells were plated in 10 x 100 mm dishes in selective media (regular media

Consider [Ru(phen)2(tpphz)]^2+ [Ru1], for which, in the experiment on OE21 cells [1], the “increase in completely stalled/terminated replication forks (CldU tract only) compared to mock-treated” value is reported as 1.7 fold. The “mitotic aberrations, share of total cell population” value in the experiment with OE21 cells [2] was ~8%.

Source of the values: paper PMC5870190, “A three-in-one-bullet for oesophageal cancer: replication fork collapse, spindle attachment failure and enhanced radiosensitivity generated by a ruthenium(II) metallo-intercalator” (Chemical Science, 2017).
